Results taken from US20250186379A1, “METHODS AND AGENTS FOR DECREASING INSULIN RESISTANCE” (Whitehead Institute for Biomedical Research, priority 2021, published 2025).
“Also recorded” adds a separate entry of the source.

Test system: insulin signaling proteins (IR, IRS1, AKT, ERK, GSK3)
Experiment: Immunoblot of phosphorylated over total insulin signaling proteins in HepG2 cells
Format: cell-based, human
Method: Cells were washed with ice-cold PBS and lysed in Cell Lytic M (Sigma-Aldrich C2978) supplemented with protease and phosphatase inhibitors (Sigma Aldrich, 11873580001 and 4906837001) directly on the wells. Lysates were placed into a 1.5 ml tube and mixed at 4° C. for 20 min and then centrifuged at 13,000 rpm for 15 min. Protein concentration was determined using a BCA Protein Assay Kit (Life Technologies, 23250) according to the manufacturer's instructions. Equal amounts of protein (5-50 μg per sample) were separated on 10% or 12% Bis-Tris gels in 5% XT MOPS running buffer (Bio-Rad Laboratories, 1610788) at 100V until dye front reached the end of the gel. Protein was then transferred to a 0.45 μM PVDF membrane (Millipore, IPVH00010) in ice cold transfer buffer (25 mM Tris, 192 mM glycine, 20% methanol) at 300 mA for 1 hour or 250 mA for 2 hours at 4° C. After the transfer, membranes were blocked in 5% non-fat milk (LabScientific, M0842) dissolved in TBST (2% Tris HCl pH 8.0, 1.3% 5M NaCl, 0.05% Tween 20) or 5% BSA (VWR, 102643-516) in 1×TBST for 15 min to 1 hour at room temperature shaking. Membranes were then incubated overnight at 4° C. in 1:1000 primary antibody in 5% non-fat milk in TBST or 5% BSA in TBST. BSA was used for immunoblotting phosphorylated proteins, otherwise milk was used. Membranes were then washed three times for 5 min in TBST shaking at room temperature prior to incubation in 1:10,000 secondary antibody in 5% non-fat milk in TBST for 1 hour at room temperature. This was followed by three 10-minute washes in TBST. Membranes were developed with ECL substrate (Thermo Scientific, 34080) and imaged using a CCD camera. Immunoblot quantification was performed using the “analyze gel” tool on Fiji/ImageJ v2.1.0/153c.
The following primary antibodies were used for WB: anti-phosphorylated insulin receptor (Abcam, ab60946 and Cell Signaling 3026), anti-insulin receptor beta (Cell Signaling, 23413; Bethyl, A303-712A or Cell Signaling, 3025), anti-insulin receptor alpha (Cell Signaling, 74118), anti-phosphorylated AKT (Cell Signaling, 4056), anti-AKT (Cell Signaling, 9272), anti-phosphorylated ERK (Cell Signaling, 4377), anti-ERK (Cell Signaling, 9102), anti-beta Actin (Sigma Aldrich, A5441). The following secondary antibodies were used: donkey anti-rabbit IgG (Cytiva Life Sciences, NA934-1ML) and sheep anti-mouse IgG (Sigma Aldrich, NXA931V).
Cells were washed with ice-cold PBS (Life Technologies, AM9625) and lysed in Cell Lytic M (Sigma Aldrich C2978) supplemented with protease and phosphatase inhibitors (Sigma Aldrich, 11873580001 and 4906837001) directly on the wells. Lysates were placed into a 1.5 ml tube and mixed at 4° C. for 20 minutes, sonicated and then centrifuged at 12,000×g for 15 minutes. Super natant was collected and protein concentration was determined using a BCA Protein Assay Kit (Life Technologies, 23250) according to the manufacturer's instructions. Equal amounts of protein (5-50 μg per sample) were separated on 10% or 12% Bis-Tris gels in 5% XT MOPS running buffer (Bio-Rad Laboratories, 1610788) at 100V until dye front reached the end of the gel. Protein was then transferred to a 0.45 μM PVDF membrane (Millipore, IPVH00010) in ice cold transfer buffer (25 mM Tris, 192 mM glycine, 20% methanol) at 300 mA for 1 hour or 250 mA for 2 hours at 4° C. After the transfer, membranes were blocked in either 5% non-fat milk (LabScientific, M0842) dissolved in TBST (2% Tris HCl pH 8.0, 1.3% 5M NaCl, 0.05% Tween 20) or 5% BSA (VWR, 102643-516) in 1×TBST for 15 minutes to 1 hour at room temperature with shaking. Membranes were then incubated overnight at 4° C. in 1:1000 primary antibody (specific antibodies listed below) in 5% non-fat milk in TBST or 5% BSA in TBST. BSA was used for immunoblotting phosphorylated proteins, otherwise milk was used. […]

[1] = insulin-sensitive HepG2 cells, acute insulin stimulation

For “insulin: insulin (Sigma Aldrich, I9278-5ML) used for acute stimulation and chronic physiological or pathological exposure”, the “phosphorylation of GSK3 after insulin stimulation” value (cells exposed to pathologic levels (3 nM) of insulin for two days) was “decreased phosphorylation of GSK3”, the “phosphorylation of insulin signaling proteins after insulin stimulation” value (cells exposed to pathologic levels (3 nM) of insulin for two days vs physiologic (0.1 nM)) was “reduced phosphorylation of IR, IRS1, AKT and ERK” and the GSK3 phosphorylation (insulin-sensitive HepG2 cells, 3 nM insulin 5 minutes) was “increased GSK3 phosphorylation”. For the same molecule, the “AKT and ERK pathway activation” value [1] was “stimulate; also recorded: AKT and ERK pathway activation” and the IR phosphorylation [1] was “stimulate; also recorded: induced IR phosphorylation”.

For `CN(C)C(=N)N=C(N)N` [metformin, reference compound], the “IRS1 phosphorylation (pIRS1 over total IRS1, western blot)” value (insulin-resistant cells + metformin (FIG. 38)) was “partial rescue of IRS1 phosphorylation; also recorded: partially rescues phosphorylation of IRS1”.
